In PMC10648927, “Examining the activity of cefepime-taniborbactam against Burkholderia cepacia complex and Burkholderia gladioli isolated from cystic fibrosis patients in the United States” (Antimicrobial Agents and Chemotherapy, 2023):
In brackets after ≈: the same amount, converted by molar mass.

Experiments:
Set-up in all cases: agar dilution MIC, growth inhibition of clinical Burkholderia isolates
[1] = test system: T1, B. multivorans AU30760; assay: microbe, parasite or virus in culture; conditions: Burkholderia multivorans, AU30760
T1 construct: AU30760
Outline: (§1)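 MICs by agar dilution against Bcc and B. gladioli clinical isolates, interpreted with CLSI breakpoints where available; K. pneumoniae ATCC 700603 (SHV-18) and ATCC BAA-1705 (KPC) served as quality controls.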

[2] = test system: T2, B. gladioli AU26456; assay: organism not typed
T2 construct: AU26456
Outline: as §1

[3] = test system: T3, B. cepacia AU23707; assay: microbe, parasite or virus in culture; conditions: Burkholderia cepacia, AU23707
T3 construct: AU23707
Outline: as §1

[4] = test system: T4, B. cenocepacia AU10321; assay: microbe, parasite or virus in culture; conditions: Burkholderia cenocepacia, AU10321
T4 construct: AU10321
Outline: as §1

[5] = test system: T5, B. arboris AU24192; assay: organism not typed
T5 construct: AU24192
Outline: as §1

[6] = test system: T6, B. gladioli AU16341; assay: organism not typed
T6 construct: AU16341
Outline: as §1

[7] = test system: T7, B. cenocepacia AU0756; assay: microbe, parasite or virus in culture; conditions: Burkholderia cenocepacia, AU0756
T7 construct: AU0756
Outline: as §1

[8] = test system: T8, Burkholderia cepacia complex Bcc Indeterminate AU9162; assay: microbe, parasite or virus in culture; conditions: Burkholderia cepacia
T8 construct: AU9162
Outline: as §1

[9] = test system: T9, B. cenocepacia AU9512; assay: microbe, parasite or virus in culture; conditions: Burkholderia cenocepacia, AU9512
T9 construct: AU9512
Outline: as §1

[10] = test system: T10, B. multivorans AU25543; assay: microbe, parasite or virus in culture; conditions: Burkholderia multivorans, AU25543
T10 construct: AU25543
Outline: as §1

[11] = test system: T11, B. cenocepacia AU12571; assay: microbe, parasite or virus in culture; conditions: Burkholderia cenocepacia, AU12571
T11 construct: AU12571
Outline: as §1

[12] = test system: T12, B. multivorans AU11204; assay: microbe, parasite or virus in culture; conditions: Burkholderia multivorans, AU11204
T12 construct: AU11204
Outline: as §1

[13] = test system: T13, B. gladioli AU27927; assay: organism not typed
T13 construct: AU27927
Outline: as §1

[14] = test system: T14, B. cenocepacia AU9710; assay: microbe, parasite or virus in culture; conditions: Burkholderia cenocepacia, AU9710
T14 construct: AU9710
Outline: as §1

[15] = test system: T15, Burkholderia cepacia complex Bcc Indeterminate AU14962; assay: microbe, parasite or virus in culture; conditions: Burkholderia cepacia
T15 construct: AU14962
Outline: as §1

[16] = test system: T16, B. cenocepacia AU14381; assay: microbe, parasite or virus in culture; conditions: Burkholderia cenocepacia, AU14381
T16 construct: AU14381
Outline: as §1

[17] = test system: T17, B. cenocepacia AU20902; assay: microbe, parasite or virus in culture; conditions: Burkholderia cenocepacia, AU20902
T17 construct: AU20902
Outline: as §1

[18] = test system: T18, B. cenocepacia AU9215; assay: microbe, parasite or virus in culture; conditions: Burkholderia cenocepacia, AU9215
T18 construct: AU9215
Outline: as §1

[19] = test system: T19, B. multivorans AU16734; assay: microbe, parasite or virus in culture; conditions: Burkholderia multivorans, AU16734
T19 construct: AU16734
Outline: as §1

[20] = test system: T20, B. multivorans AU19659; assay: microbe, parasite or virus in culture; conditions: Burkholderia multivorans, AU19659
T20 construct: AU19659
Outline: as §1

[21] = test system: T21, B. cepacia AU27816; assay: microbe, parasite or virus in culture; conditions: Burkholderia cepacia, AU27816
T21 construct: AU27816
Outline: as §1

[22] = test system: T22, B. vietnamiensis AU3997; assay: microbe, parasite or virus in culture; conditions: Burkholderia vietnamiensis, AU3997
T22 construct: AU3997
Outline: as §1

[23] = test system: T23, B. cenocepacia AU9292; assay: microbe, parasite or virus in culture; conditions: Burkholderia cenocepacia, AU9292
T23 construct: AU9292
Outline: as §1

Structure (SMILES) | MIC [1] | MIC [2] | MIC [3] | MIC [4] | MIC [5] | MIC [6] | MIC [7] | MIC [8] | MIC [9] | MIC [10] | MIC [11] | MIC [12] | MIC [13] | MIC [14] | MIC [15] | MIC [16] | MIC [17] | MIC [18] | MIC [19] | MIC [20] | further results
CO/N=C(\C(=O)N[C@@H]1C(=O)N2C(C(=O)[O-])=C(C[N+]3(C)CCCC3)CS[C@H]12)c1csc(N)n1 [cefepime] | 8 µg/mL (≈ 16.6 µM) | 4 µg/mL (≈ 8.32 µM) | 32 µg/mL (≈ 66.6 µM) | > 32 µg/mL | 32 µg/mL (≈ 66.6 µM) | > 32 µg/mL | > 32 µg/mL | 32 µg/mL (≈ 66.6 µM) | 32 µg/mL (≈ 66.6 µM) | 4 µg/mL (≈ 8.32 µM) | 16 µg/mL (≈ 33.3 µM) | 4 µg/mL (≈ 8.32 µM) | 8 µg/mL (≈ 16.6 µM) | 16 µg/mL (≈ 33.3 µM) | > 32 µg/mL | 32 µg/mL (≈ 66.6 µM) | 16 µg/mL (≈ 33.3 µM) | > 32 µg/mL | 16 µg/mL (≈ 33.3 µM) | > 32 µg/mL | MIC [21]: 16 µg/mL (≈ 33.3 µM); MIC [22]: 8 µg/mL (≈ 16.6 µM); MIC [23]: 32 µg/mL (≈ 66.6 µM)
C[C@@H](O)[C@H]1C(=O)N2C(C(=O)O)=C(S[C@@H]3CN[C@H](C(=O)N(C)C)C3)[C@H](C)[C@H]12 [meropenem] | 2 µg/mL (≈ 5.22 µM) | 1 µg/mL (≈ 2.61 µM) | 8 µg/mL (≈ 20.9 µM) | 16 µg/mL (≈ 41.7 µM) | 8 µg/mL (≈ 20.9 µM) | 8 µg/mL (≈ 20.9 µM) | 32 µg/mL (≈ 83.4 µM) | 4 µg/mL (≈ 10.4 µM) | 4 µg/mL (≈ 10.4 µM) | 1 µg/mL (≈ 2.61 µM) | 2 µg/mL (≈ 5.22 µM) | 2 µg/mL (≈ 5.22 µM) | 1 µg/mL (≈ 2.61 µM) | 4 µg/mL (≈ 10.4 µM) | 8 µg/mL (≈ 20.9 µM) | 4 µg/mL (≈ 10.4 µM) | 4 µg/mL (≈ 10.4 µM) | 16 µg/mL (≈ 41.7 µM) | 16 µg/mL (≈ 41.7 µM) | 32 µg/mL (≈ 83.4 µM) | MIC [21]: 4 µg/mL (≈ 10.4 µM); MIC [22]: 1 µg/mL (≈ 2.61 µM); MIC [23]: 4 µg/mL (≈ 10.4 µM)
C[C@H]1COc2c(N3CCN(C)CC3)c(F)cc3c(=O)c(C(=O)O)cn1c23 [levofloxacin] | 2 µg/mL (≈ 5.53 µM) | 0.5 µg/mL (≈ 1.38 µM) | 32 µg/mL (≈ 88.6 µM) | > 32 µg/mL | 4 µg/mL (≈ 11.1 µM) | 4 µg/mL (≈ 11.1 µM) | > 32 µg/mL | 1 µg/mL (≈ 2.77 µM) | 16 µg/mL (≈ 44.3 µM) | 2 µg/mL (≈ 5.53 µM) | 8 µg/mL (≈ 22.1 µM) | 2 µg/mL (≈ 5.53 µM) | 1 µg/mL (≈ 2.77 µM) | 4 µg/mL (≈ 11.1 µM) | 2 µg/mL (≈ 5.53 µM) | > 32 µg/mL | 4 µg/mL (≈ 11.1 µM) | 32 µg/mL (≈ 88.6 µM) | 8 µg/mL (≈ 22.1 µM) | 16 µg/mL (≈ 44.3 µM) | MIC [21]: 4 µg/mL (≈ 11.1 µM); MIC [22]: 8 µg/mL (≈ 22.1 µM); MIC [23]: 32 µg/mL (≈ 88.6 µM)
